Experimental data reported in patent US20250066286A1, “COMPOSITIONS OF (Z)-ENDOXIFEN AND METHODS OF ENRICHMENT THEREOF” (Atossa Therapeutics, Inc., priority 2022, published 2025).
Values after ≈ are worked out from the molar mass of the structure shown. Like-named read-outs stand apart in the source and are kept apart here.

Assay: Solubility testing of (Z)-endoxifen in single solvents
Assay type: physicochemical
Details: for solubility at 15 min: 25 °C; for solubility at 15 min / solubility: organic solvent or mixture, thermodynamic from solid
Procedure: To test the solubility of (Z)-endoxifen in varying conditions, 10 mg of (Z)-endoxifen was added to a stoppered tube, and 0.01 ml of the selected solvent was added (1000 mg/ml solution). The tube was shaken vigorously for 1 minute and then incubated at a constant temperature of 25.0° C. for 15 minutes. If the solid was not completed dissolved, the tube was shaken again and placed at the constant temperature of 25.0° C. for another 15 minutes. If the solid was completely dissolved at this step, it was considered to be very soluble in the selected solvent system. If the solid was not dissolved by this step, another 0.09 ml was added (yielding a 100 mg/ml solution) and an attempt to further dissolve the solid was made by the same steps of shaking and incubating twice over as described previously. If the solid was completely dissolved at this step, it was considered freely soluble. If the solid was not dissolved by this step another 0.2 ml was added (yielding a 33.3 mg/ml solution) and an attempt to further dissolve the solid was made by the same steps of shaking and incubating twice over as described previously. If the solid was completely dissolved at this step, it was considered soluble. If the solid was not dissolved by this step another, 0.7 ml was added (yielding a 10 mg/ml solution) and an attempt to further dissolve the solid was made by the same steps of shaking and incubating twice over as described previously. If the solid was completely dissolved at this step, it was considered sparingly soluble. If the solid was not dissolved by this step the sample was considered to be slightly soluble or very slightly soluble and the solution was heated until the boiling point of the solvent system (max 100° C.) under stirring with a rate of 0.5° C. per minute temperature ramp rate to verify the solubility at high temperatures. The hot solution was after cooled to room temperature with a cooling rate of 0.5° C. per minute to verify if the sample had precipitated after up to 18 hours under magnetic stirring. The same procedure was also used for the solvent mixture solubility tests. The concentrations investigated for the solvent mixture stability were 40 mg/ml and 100 mg/ml. Some solutions in the following example were precipitated by cooling of the solution from a temperature between 50-100° C. to between 10-25° C. at a rate ranging from −0.2 to −0.5° C./minute resulting in a precipitate.

CC/C(=C(\c1ccc(O)cc1)c1ccc(OCCNC)cc1)c1ccccc1 [(Z)-endoxifen, (Z)-4-(1-(4-(2-(methylamino)ethoxy)phenyl)-2-phenylbut-1-enyl)phenol]
solubility at 15 min (2-propanol, 2-propanol, room temperature, read-out: Solubility): 10000 µg/mL (≈ 26.8 mM) | solubility at 15 min (2-propanol, solvent 2-propanol, room temperature, read-out: Solubility at RT): 10000 µg/mL (≈ 26.8 mM) | solubility (2-propanol, 2-propanol, high temperature, read-out: Solubility): 20000 to 100000 µg/mL (≈ 53.5 to 268 mM) | solubility at 15 min (4-met-2-pentanone, 4-met-2-pentanone, room temperature, read-out: Solubility): 10000 µg/mL (≈ 26.8 mM) | solubility (4-met-2-pentanone, 4-met-2-pentanone, high temperature, read-out: Solubility): 100000 to 200000 µg/mL (≈ 268 to 535 mM) | solubility at 15 min (DMF, DMF, read-out: Solubility): 250000 to 500000 µg/mL (≈ 669 to 1340 mM) | solubility at 15 min (THF, THF, read-out: Solubility): 111000 to 125000 µg/mL (≈ 297 to 335 mM) | solubility at 15 min (acetone, acetone, room temperature, read-out: Solubility): 10000 µg/mL (≈ 26.8 mM) | solubility at 15 min (acetone, solvent acetone, room temperature, read-out: Solubility at RT): 10000 µg/mL (≈ 26.8 mM) | solubility (acetone, acetone, high temperature, read-out: Solubility): < 50000 µg/mL | solubility (acetone, solvent acetone, 100 mg/mL, high temperature, read-out: Solubility HT (100 mg/mL): Sol. HT): < 100000 µg/mL | solubility at 15 min (acetonitrile, acetonitrile, room temperature, read-out: Solubility): < 10000 µg/mL | solubility at 15 min (acetonitrile, solvent acetonitrile, room temperature, read-out: Solubility at RT): < 10000 µg/mL | solubility (acetonitrile, acetonitrile, high temperature, read-out: Solubility): 20000 to 100000 µg/mL (≈ 53.5 to 268 mM) | solubility (acetonitrile, solvent acetonitrile, 100 mg/mL, high temperature, read-out: Solubility HT (100 mg/mL): Sol. HT): < 100000 µg/mL | solubility at 15 min (butyl acetate, butyl acetate, room temperature, read-out: Solubility): 10000 µg/mL (≈ 26.8 mM) | solubility at 15 min (butyl acetate, solvent butyl acetate, room temperature, read-out: Solubility at RT): 10000 µg/mL (≈ 26.8 mM) | solubility (butyl acetate, butyl acetate, high temperature, read-out: Solubility): 20000 to 100000 µg/mL (≈ 53.5 to 268 mM) | solubility at 15 min (butyl methyl ether, solvent butyl methyl ether, room temperature, read-out: Solubility at RT): 10000 µg/mL (≈ 26.8 mM) | solubility (butyl methyl ether, solvent butyl methyl ether, 10 mg/mL, high temperature, read-out: Solubility HT (10 mg/mL): Sol. HT): < 10000 µg/mL | solubility at 15 min (dimethylformamide (stored as limethylformamide), solvent limethylformamide, room temperature, read-out: Solubility at RT): 200000 to 250000 µg/mL (≈ 535 to 669 mM) | solubility at 15 min (ethanol, ethanol, room temperature, read-out: Solubility): 10000 µg/mL (≈ 26.8 mM) | solubility at 15 min (ethanol, solvent ethanol, room temperature, read-out: Solubility at RT): 10000 µg/mL (≈ 26.8 mM) | solubility (ethanol, ethanol, high temperature, read-out: Solubility): 20000 to 100000 µg/mL (≈ 53.5 to 268 mM) | solubility at 15 min (ethyl acetate, ethyl acetate, room temperature, read-out: Solubility): 10000 µg/mL (≈ 26.8 mM) | solubility at 15 min (ethyl acetate, solvent ethyl acetate, room temperature, read-out: Solubility at RT): 10000 µg/mL (≈ 26.8 mM) | solubility (ethyl acetate, ethyl acetate, high temperature, read-out: Solubility): 20000 to 100000 µg/mL (≈ 53.5 to 268 mM) | solubility at 15 min (heptane, heptane, room temperature, read-out: Solubility): < 10000 µg/mL | solubility at 15 min (heptane, solvent heptane, room temperature, read-out: Solubility at RT): < 10000 µg/mL | solubility (heptane, heptane, high temperature, read-out: Solubility): < 10000 µg/mL | solubility (heptane, solvent heptane, 10 mg/mL, high temperature, read-out: Solubility HT (10 mg/mL): Sol. HT): < 10000 µg/mL | solubility at 15 min (methanol, methanol, read-out: Solubility): 17000 to 20000 µg/mL (≈ 45.5 to 53.5 mM) | solubility at 15 min (methanol, solvent methanol, room temperature, read-out: Solubility at RT): 17000 to 20000 µg/mL (≈ 45.5 to 53.5 mM) | solubility at 15 min (methyl isobutyl ketone (4-methyl-2-pentanone), solvent methyl isobutyl ketone (4-methyl-2-pentanone), room temperature, read-out: Solubility at RT): 10000 µg/mL (≈ 26.8 mM) | Solubility HT (10 mg/mL): Clear point (solvent 2-propanol, 10 mg/mL): 44 °C | Solubility HT (10 mg/mL): Sol. HT (solvent 2-propanol, 10 mg/mL, high temperature): YES | Solubility HT (20 mg/mL): Clear point (solvent 2-propanol, 20 mg/mL): 50.6 °C | Solubility HT (20 mg/mL): Sol. HT (solvent 2-propanol, 20 mg/mL, high temperature): YES | Solubility HT (20 mg/mL): Re-PPT (solvent 2-propanol, 20 mg/mL, on cooling): YES | Solubility HT (100 mg/mL): Clear point (solvent 2-propanol, 100 mg/mL): 74.4 °C | Solubility HT (100 mg/mL): Cloudy point (solvent 2-propanol, 100 mg/mL): 43.9 °C | Solubility HT (100 mg/mL): Sol. HT (solvent 2-propanol, 100 mg/mL, high temperature): YES | Solubility HT (100 mg/mL): Re-PPT (solvent 2-propanol, 100 mg/mL, on cooling): YES | Solubility HT (10 mg/mL): Clear point (solvent acetone, 10 mg/mL): 30 °C | Solubility HT (10 mg/mL): Sol. HT (solvent acetone, 10 mg/mL, high temperature): YES | Solubility HT (20 mg/mL): Clear point (solvent acetone, 20 mg/mL): 38 °C | Solubility HT (20 mg/mL): Re-PPT after 18 hours at −20° C. (solvent acetone, 20 mg/mL): YES | Solubility HT (20 mg/mL): Sol. HT (solvent acetone, 20 mg/mL, high temperature): YES | Solubility HT (10 mg/mL): Clear point (solvent acetonitrile, 10 mg/mL): 56 °C | Solubility HT (10 mg/mL): Sol. HT (solvent acetonitrile, 10 mg/mL, high temperature): YES | Solubility HT (10 mg/mL): Re-PPT (solvent acetonitrile, 10 mg/mL, on cooling): YES | Solubility HT (20 mg/mL): Clear point (solvent acetonitrile, 20 mg/mL): 75 °C | Solubility HT (20 mg/mL): Sol. HT (solvent acetonitrile, 20 mg/mL, high temperature): YES | Solubility HT (20 mg/mL): Re-PPT (solvent acetonitrile, 20 mg/mL, on cooling): YES
